Test system: HEK-293 cells
Experiment: Cell viability assay (calcein fluorescence), parental HEK-293 cells
Type: cell-based
Conditions: parental HEK-293, 5-50 μM, 16 h
Method: Shown are HEK-293 cells (closed diamond) and HEK-293 cells stably transfected with a tet-controlled TRPM2 construct in the presence (open squares) or absence of (open diamonds) tetracycline. Cells incubated in the presence of 0-50 μM puromycin for 16 h were assayed for viability by measuring fluorescence of calcein in live cells. b.) Removal of calcium rescues cells from puromycin induced cell death. TRPM2-expressing HEK-293 cells were grown in complete DMEM media and 1 μg/ml tetracycline until 80-90% confluent. One set of cells were re-fed with the same complete media (closed diamonds) and the other set of cells were rinsed with PBS and fed with modified media containing 1 μg/ml tetracycline, 5 mM EGTA and without calcium chloride (open squares). […] HEK-293 (close diamond) and TRPM2 expressing HEK-293 cells in the absence (open diamond) or presence of (closed square) tetracycline were exposed to 0-10 μg/ml cycloheximide for 16 h. Cell viability was determined as described in (a).
HEK-293, tet-inducible HEK-293, and CRI-G1 cells were seeded into 6 well plates at a density of 500,000 cells per well. […] Calcein is retained in living, but not dead cells, where it undergoes catalytic conversion into a fluorescent compound Fluorescence in each well was measured in a microplate reader using excitation and emission filters at 485/530 nm, respectively.

COc1ccc(C[C@H](N)C(=O)N[C@H]2[C@@H](O)[C@H](n3cnc4c(N(C)C)ncnc43)O[C@@H]2CO)cc1 [puromycin]
cell death following puromycin treatment: no significant cell death

Reference: patent US8440638B2, “Compositions and methods for modulating calcium flux, glucose homeostasis and apoptosis” (Wisconsin Alumni Research Foundation, priority 2004, dated 2013)
